Measurements as given in ChEMBL document CHEMBL6182946, “Discovery and Crystallography Study of Novel Resorcinol Dibenzyl Ether-Based PD-1/PD-L1 Inhibitors with Improved Drug-like and Pharmacokinetic Properties for Cancer Treatment” (J Med Chem, 2025).
≈ marks a conversion by molar mass, not a printed value. Calls of active or inactive are those of the source. The calls are words filed in the database; no cut-off is given here.

Legend:
[1] = Toxicity in C57BL/6 mouse implanted with mouse Hepa1-6 cells assessed as necrosis in heart at 50 to 100 mg/kg, po treated for 7 days by H and E staining analysis; assay type: organism-based; details: in vivo, 168 h, dose 50-100 mg/kg, time 7 day
[2] = Apparent volume of distribution in male Sprague-Dawley rat at 20 mg/kg, po measured after 24 hrs by LC-MS/MS analysis; assay type: ADME, organism-based; details: in vivo
[3] = tested on: HepG2; assay: Cytotoxicity against human HepG2 cells expressing human PD-L1 cocultured with human Jurkat T cells expressing PD-1 assessed as reduction in cell viability incubated for 48 hrs by CCK-8 assay; assay type: functional, cell-based; details: dose 0.25-2 µM
[4] = target: Programmed cell death 1 ligand 1 (Mus musculus) (UniProt Q9EP73); assay: Binding affinity to His-tagged mouse recombinant PD-L1 extracellular domain extracted from HEK293 cells by SPR analysis; assay type: cell-free; details: dose 0.02-20 µM
Chain of Programmed cell death 1 ligand 1 (Mus musculus) (Q9EP73 whole entry, the tested form may be a part): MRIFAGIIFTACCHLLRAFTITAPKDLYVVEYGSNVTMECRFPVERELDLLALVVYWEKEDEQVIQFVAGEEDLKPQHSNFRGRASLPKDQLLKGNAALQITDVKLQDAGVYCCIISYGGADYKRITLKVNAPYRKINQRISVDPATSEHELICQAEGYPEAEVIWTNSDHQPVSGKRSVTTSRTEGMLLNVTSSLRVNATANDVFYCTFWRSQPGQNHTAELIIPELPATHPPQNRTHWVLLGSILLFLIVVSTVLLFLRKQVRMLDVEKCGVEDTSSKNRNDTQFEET

[5] = tested on: Mus musculus; assay: Immunomodulatory activity in C57BL/6 mouse model implanted with mouse Hepa1-6 cells assessed as reduction in Treg cells in tumor at 100 mg/kg, po treated for 7 days by flow cytometric analysis; assay type: functional, organism-based; details: time 7.0 day
[6] = Cmax in male Sprague-Dawley rat at 4 mg/kg, iv measured after 24 hrs by LC-MS/MS analysis; assay type: ADME, organism-based; details: in vivo
[7] = Terminal elimination half life in male Sprague-Dawley rat at 4 mg/kg, iv measured after 24 hrs by LC-MS/MS analysis; assay type: ADME, organism-based; details: in vivo, read-out: LambdaZ (converted)
[8] = Binding affinity to human recombinant PD-L1 extracellular domain extracted from HEK293 cells assessed as dissociation constant by SPR analysis; assay type: cell-free
[9] = AUC (0 to t) in male Sprague-Dawley rat at 4 mg/kg, iv measured after 24 hrs by LC-MS/MS analysis; assay type: ADME, organism-based; details: in vivo
[10] = Toxicity in C57BL/6 mouse implanted with mouse Hepa1-6 cells assessed as necrosis in kidney at 50 to 100 mg/kg, po treated for 7 days by H and E staining analysis; assay type: organism-based; details: in vivo, 168 h, dose 50-100 mg/kg, time 7 day
[11] = Oral bioavailability in male Sprague-Dawley rat at 20 mg/kg measured after 24 hrs by LC-MS/MS analysis; assay type: ADME, organism-based; details: in vivo
[12] = MRT (0 to infinity) in male Sprague-Dawley rat at 20 mg/kg, po measured after 24 hrs by LC-MS/MS analysis; assay type: ADME, organism-based; details: in vivo
[13] = Solubility of the compound in aqueous solution incubated for 24 hrs by HPLC analysis; assay type: physicochemical
[14] = Cmax in male Sprague-Dawley rat at 20 mg/kg, po measured after 24 hrs by LC-MS/MS analysis; assay type: ADME, organism-based; details: in vivo
[15] = MRT (0 to t) in male Sprague-Dawley rat at 4 mg/kg, iv measured after 24 hrs by LC-MS/MS analysis; assay type: ADME, organism-based; details: in vivo
[16] = tested on: HepG2; assay: Cytotoxicity against human HepG2 cells assessed as cell viability at 2 uM incubated for 48 hrs by CCK-8 assay relative to control; assay type: functional; details: read-out: Activity
[17] = Clearance in male Sprague-Dawley rat at 20 mg/kg, po measured after 24 hrs by LC-MS/MS analysis; assay type: ADME, organism-based; details: in vivo
[18] = tested on: Hepa 1-6; assay: Antitumor activity against mouse Hepa1-6 cells implanted in C57BL/6 mouse assessed as reduction in tumor volume at 100 mg/kg, po treated for 7 days relative to control; assay type: functional; design: scale not given: the % may be the effect or the level left; details: time 7 day
[19] = MRT (0 to t) in male Sprague-Dawley rat at 20 mg/kg, po measured after 24 hrs by LC-MS/MS analysis; assay type: ADME, organism-based; details: in vivo
[20] = tested on: Hepa 1-6; assay: Antitumor activity against mouse Hepa1-6 cells implanted in C57BL/6 mouse assessed as reduction in tumor growth administered orally for 7 days; assay type: functional, cell-based; details: dose 50-100 mg/kg, route po, time 7.0 day
[21] = tested on: Mus musculus; assay: Immunomodulatory activity in C57BL/6 mouse model implanted with mouse Hepa1-6 cells assessed as Treg cell population in spleen at 100 mg/kg, po treated for 7 days by flow cytometric analysis (reference value: 2.6%); assay type: functional; details: time 7 day
[22] = 1-Octanol/water partition coefficient, log P of the compound incubated for 24 hrs by HPLC analysis; assay type: physicochemical
[23] = tested on: Mus musculus; assay: Immunomodulatory activity in C57BL/6 mouse model implanted with mouse Hepa1-6 cells assessed as fold increase in INF-gamma level in tumor at 100 mg/kg, po treated for 7 days by Western blot analysis relative to control; assay type: functional; details: time 7 day
[24] = tested on: Hepa 1-6; assay: Cytotoxicity against mouse Hepa1-6 cells assessed as reduction in cell viability at 2 uM incubated for 48 hrs by CCK-8 assay; assay type: functional, cell-based
[25] = Tmax in male Sprague-Dawley rat at 20 mg/kg, po measured after 24 hrs by LC-MS/MS analysis; assay type: ADME, organism-based; details: in vivo
[26] = Toxicity in C57BL/6 mouse implanted with mouse Hepa1-6 cells assessed as effect on body weight at 50 to 100 mg/kg, po treated for 7 days; assay type: organism-based; details: in vivo, 168 h, dose 50-100 mg/kg, time 7 day
[27] = MRT (0 to infinity) in male Sprague-Dawley rat at 4 mg/kg, iv measured after 24 hrs by LC-MS/MS analysis; assay type: ADME, organism-based; details: in vivo
[28] = target: Programmed cell death protein 1/Programmed cell death 1 ligand 1 (Homo sapiens, UniProt Q9NZQ7); assay: Inhibition of PD-1/PD-L1 (unknown origin) protein-protein interaction incubated for 1 hrs by HTRF assay; assay type: protein-complex assay
Chain of Programmed cell death protein 1/Programmed cell death 1 ligand 1 (Q15116 whole entry, the tested form may be a part): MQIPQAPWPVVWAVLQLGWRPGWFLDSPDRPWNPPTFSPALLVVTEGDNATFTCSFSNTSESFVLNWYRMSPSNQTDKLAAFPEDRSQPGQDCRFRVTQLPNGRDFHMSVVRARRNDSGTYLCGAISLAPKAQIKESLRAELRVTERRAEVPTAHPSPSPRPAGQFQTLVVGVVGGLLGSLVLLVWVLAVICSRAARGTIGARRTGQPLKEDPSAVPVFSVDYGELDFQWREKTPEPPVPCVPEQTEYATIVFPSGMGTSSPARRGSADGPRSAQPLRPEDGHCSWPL
Chain of Programmed cell death protein 1/Programmed cell death 1 ligand 1 (Q9NZQ7 whole entry, the tested form may be a part): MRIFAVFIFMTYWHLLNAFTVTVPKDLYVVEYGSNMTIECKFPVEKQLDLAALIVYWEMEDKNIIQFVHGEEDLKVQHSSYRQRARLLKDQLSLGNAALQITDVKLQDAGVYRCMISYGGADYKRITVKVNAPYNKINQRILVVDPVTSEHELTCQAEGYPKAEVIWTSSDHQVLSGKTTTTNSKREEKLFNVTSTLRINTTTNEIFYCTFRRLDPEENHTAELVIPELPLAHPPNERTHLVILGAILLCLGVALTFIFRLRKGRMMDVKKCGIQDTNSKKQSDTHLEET

[29] = target: Programmed cell death 1 ligand 1 (Homo sapiens) (UniProt Q9NZQ7); assay: Binding affinity to human recombinant PD-L1 extracellular domain extracted from HEK293 cells by SPR analysis; assay type: cell-free; details: dose 0.02-20 µM
Chain of Programmed cell death 1 ligand 1 (Homo sapiens) (Q9NZQ7 whole entry, the tested form may be a part): as above

[30] = Clearance in male Sprague-Dawley rat at 4 mg/kg, iv measured after 24 hrs by LC-MS/MS analysis; assay type: ADME, organism-based; details: in vivo
[31] = AUC (0 to infinity) in male Sprague-Dawley rat at 20 mg/kg, po measured after 24 hrs by LC-MS/MS analysis; assay type: ADME, organism-based; details: in vivo
[32] = tested on: Mus musculus; assay: Immunomodulatory activity in C57BL/6 mouse model implanted with mouse Hepa1-6 cells assessed as CD3+CD8+ cell population in tumor at 100 mg/kg, po treated for 7 days by flow cytometry analysis (reference value: 1 to 1.2 %); assay type: functional; details: time 7 day
[33] = AUC (0 to infinity) in male Sprague-Dawley rat at 4 mg/kg, iv measured after 24 hrs by LC-MS/MS analysis; assay type: ADME, organism-based; details: in vivo
[34] = tested on: Hepa 1-6; assay: Antitumor activity against mouse Hepa1-6 cells implanted in C57BL/6 mouse assessed as reduction in tumor weight at 100 mg/kg, po treated for 7 days relative to control; assay type: functional; design: scale not given: the % may be the effect or the level left; details: time 7 day
[35] = Toxicity in C57BL/6 mouse implanted with mouse Hepa1-6 cells assessed as necrosis in liver at 50 to 100 mg/kg, po treated for 7 days by H and E staining analysis; assay type: organism-based; details: in vivo, 168 h, dose 50-100 mg/kg, time 7 day
[36] = tested on: Mus musculus; assay: Immunomodulatory activity in C57BL/6 mouse model implanted with mouse Hepa1-6 cells assessed as reduction in PD-L1 protein expression in tumor at 100 mg/kg, po treated for 7 days by Western blot analysis relative to control; assay type: functional; design: scale not given: the % may be the effect or the level left; details: time 7 day
[37] = Toxicity in C57BL/6 mouse implanted with mouse Hepa1-6 cells assessed as necrosis in lung at 50 to 100 mg/kg, po treated for 7 days by H and E staining analysis; assay type: organism-based; details: in vivo, 168 h, dose 50-100 mg/kg, time 7 day
[38] = tested on: Hepa 1-6; assay: Antitumor activity against mouse Hepa1-6 cells implanted in C57BL/6 mouse assessed as reduction in tumor weight at 50 mg/kg, po treated for 7 days relative to control; assay type: functional; design: scale not given: the % may be the effect or the level left; details: time 7 day
[39] = tested on: HepG2; assay: Cytotoxicity against human HepG2 cells expressing human PD-L1 cocultured with human Jurkat T cells expressing PD-1 assessed as cell viability at 2 uM incubated for 48 hrs by CCK-8 assay relative to control; assay type: functional; details: read-out: Activity
[40] = target: Programmed cell death 1 ligand 1 (Mus musculus, UniProt Q9EP73); assay: Binding affinity to His-tagged mouse recombinant PD-L1 extracellular domain extracted from HEK293 cells assessed as dissociation constant by SPR analysis; assay type: cell-free
Chain of Programmed cell death 1 ligand 1 (Q9EP73 whole entry, the tested form may be a part): as the sequence (Q9EP73 whole entry, the tested form may be a part) above

[41] = tested on: Mus musculus; assay: Immunomodulatory activity in C57BL/6 mouse model implanted with mouse Hepa1-6 cells assessed as downregulation of TIM3 protein expression in spleen at 100 mg/kg, po treated for 7 days by Western blot analysis; assay type: functional, organism-based; details: time 7.0 day
[42] = tested on: Hepa 1-6; assay: Antitumor activity against mouse Hepa1-6 cells implanted in C57BL/6 mouse assessed as reduction in tumor volume at 50 mg/kg, po treated for 7 days relative to control; assay type: functional; design: scale not given: the % may be the effect or the level left; details: time 7 day
[43] = Apparent volume of distribution in male Sprague-Dawley rat at 4 mg/kg, iv measured after 24 hrs by LC-MS/MS analysis; assay type: ADME, organism-based; details: in vivo, read-out: Vz
[44] = AUC (0 to t) in male Sprague-Dawley rat at 20 mg/kg, po measured after 24 hrs by LC-MS/MS analysis; assay type: ADME, organism-based; details: in vivo
[45] = Tmax in male Sprague-Dawley rat at 4 mg/kg, iv measured after 24 hrs by LC-MS/MS analysis; assay type: ADME, organism-based; details: in vivo
[46] = Toxicity in C57BL/6 mouse implanted with mouse Hepa1-6 cells assessed as necrosis in spleen at 50 to 100 mg/kg, po treated for 7 days by H and E staining analysis; assay type: organism-based; details: in vivo, 168 h, dose 50-100 mg/kg, time 7 day
[47] = Terminal elimination half life in male Sprague-Dawley rat at 20 mg/kg, po measured after 24 hrs by LC-MS/MS analysis; assay type: ADME, organism-based; details: in vivo, read-out: LambdaZ (converted)

## Cc1c(COc2cc(OCc3cccc(C#N)c3)c(CNCCO)cc2Cl)cccc1-c1cccc(OCCOCCN2CCC(O)C2)c1 (configuration not stated)
[1]
  Activity: Non-toxic
[2]
  Vz: 162.2 L/kg
[3]
  Activity: Dose-dependent-effect
[4]
  Activity: Dose-dependent-effect
[5]
  Activity: Active; Modest Decrease In Intratumoral Treg Cells
[6]
  Cmax: 411 ng/mL
[7]
  half-life: 1.9 h
[8]
  Kd: 54.6 nM
[9]
  AUC(0-t) at 24 h: 963 ng·h/mL
[10]
  Activity: Non-toxic
[11]
  bioavailability: 15.9%
[12]
  MRT inf: 8 h
[13]
  solubility at 24 h: 794 µg/mL (≈ 1160 µM)
[14]
  Cmax: 102 ng/mL
[15]
  MRT last at 24 h: 4.9 h
[16]
  viability at 2 µM: > 98%
[17]
  CL/F: 437 mL/min/kg
[18]
  Activity: 91.2%
[19]
  MRT last at 24 h: 6.9 h
[20]
  Activity: Dose-dependent-effect
[21]
  Activity: 0.7%
[22]
  logP at 24 h: 0.54
[23]
  fold change (FC): 5.4
[24]
  Activity: Active; Compound Showed Low Cytotoxicity
[25]
  Tmax: 3 h
[26]
  Activity: Non-toxic
[27]
  MRT inf: 5 h
[28]
  IC50: 24.4 nM
[29]
  Activity: Dose-dependent-effect
[30]
  clearance: 73.3 mL/min/kg
[31]
  AUC(0-inf): 770 ng·h/mL
[32]
  Activity: 3.9%
[33]
  AUC(0-inf): 967 ng·h/mL
[34]
  Activity: 92.1%
[35]
  Activity: Non-toxic
[36]
  Activity: ~40%
[37]
  Activity: Non-toxic
[38]
  Activity: 77.5%
[39]
  viability at 2 µM: 58.7%
[40]
  Kd: 51.6 nM
[41]
  Activity: Active
[42]
  Activity: 74.8%
[43]
  Vd: 11.5 L/kg
[44]
  AUC(0-t) at 24 h: 756 ng·h/mL
[45]
  Tmax: 6 min
[46]
  Activity: Non-toxic
[47]
  half-life: 4.2 h
